# Assay results from patent EP4755885A1 (Shanghai Hansoh Biomedical Co., Ltd., priority 2023, dated 2025).
# What was measured:
# [1] = Pharmacokinetic evaluation in rats, oral administration; design: species or system SD rats; details: rat, in vivo, p.o. 5 mg/kg, plasma
# Procedure: SD rats were used as test animals to study the pharmacokinetic behavior of the following example compounds, administered orally at a dose of 5 mg/kg, in the plasma of the rats. SD rats, 3 per group, male. […] An example compound was weighed and added to a 4 mL glass bottle, and the solution was added. […] Sonication was performed for 10 min to obtain a colorless clear solution having a concentration of 0.5 mg/mL. […] The blood samples were placed in EDTA-K2 tubes and centrifuged at 6000 rpm at 4°C for 6 min to separate plasma, which was stored at -80°C. […] • Liquid phase conditions: Shimadzu LC-20AD pump • Mass spectrometry conditions: AB Sciex API 4000 mass spectrometer • Chromatographic column: phenomenex Gemiu 5 um C18 50 × 4.6 mm • Mobile phase: Solution A was 0.1% formic acid aqueous solution, and Solution B was methanol • Flow rate: 1.0 mL/min • Elution time: 0-4.0 min, the eluent was as follows: […] The results of the rat pharmacokinetic experiment are shown in the table below: Table 5: Pharmacokinetic parameters of oral administration of the compound of the present invention in rats
# [2] = Pharmacokinetic evaluation in Macaca fascicularis monkeys, intravenous administration; format: in vivo; details: cynomolgus monkey, I.V. 0.2 mg/kg, plasma
# Procedure: Macaca fascicularis monkeys were used as test animals to study the pharmacokinetic behavior of the compound of the present invention, administered intravenously at a dose of 0.2 mg/kg, in Macaca fascicularis monkeys (plasma).
# Macaca fascicularis monkeys, 3 per group, male, Guangxi Xiongsen, Animal Production License No.: SCXK (Gui) 2021-0004).
# Preparation of drug for intravenous administration: 5%DMSO+10%Solutol HS15+85%PBS
# The compound of the present invention was weighed. 5% DMSO was first added according to the proportion in the total volume, followed by vortexing and sonication for 2 min to achieve complete dissolution. Then 10% Solutol HS15 was added, followed by vortexing and sonication for 2 min to achieve complete dissolution. Finally, 85% PBS was added, followed by vortexing and sonication for 5 min and filtering through a 0.22 um filter membrane to obtain a colorless, transparent, clear solution having a concentration of 0.1 mg/mL.
# Three Macaca fascicularis monkeys, male, respectively administered I.V. after fasting overnight, at a dose of 0.2 mg/kg and in an administration volume of 2 mL/kg.
# 0.5 mL of blood was collected from the forelimb vein of the Macaca fascicularis monkeys before administration and at 0.083, 0.25, 0.5, 1, 2, 4, 8, and 24 h after administration. The blood samples were placed in EDTA-K2 tubes and centrifuged at 6000 rpm at 4°C for 6 min to separate plasma, which was stored at -80°C.
# 40 µL of a plasma sample was added with 160 µL of acetonitrile for precipitation, and after mixing, the mixture was centrifuged at 3500 × g for 5 to 20 min.
# 100 µL of the supernatant solution after treatment was taken for LC/MS/MS analysis of the concentration of the test compound.
# Liquid phase condition: Shimadzu LC-20AD pump Mass spectrometry condition: AB Sciex API 4000 mass spectrometer Chromatographic column: phenomenex Gemiu 5 um C18 50 × 4.6 mm Mobile phase: Solution A was 0.1% formic acid aqueous solution, and Solution B was acetonitrile Flow rate: 0.8 mL/min Elution time: 0-4.0 min, the eluent was as follows:
# Main pharmacokinetic parameters were calculated using WinNonlin 8.2. The results of the Macaca fascicularis monkey pharmacokinetic experiment are shown in Table 8 below: Table 8: Pharmacokinetic parameters of injection administration of the compound of the present invention in Macaca fascicularis monkeys
smiles,measurement,setting,value
"[2H]C([2H])([2H])n1nc2c3c(c(-n4ccn(-c5c6c(nn5-c5cc(C)c(F)c(C)c5)CCN(C(=O)c5cc7cc([C@H]8CCOC(C)(C)C8)ccc7n5[C@@]5(c7noc(=O)[nH]7)C[C@@H]5C)[C@H]6C)c4=O)ccc31)OCCC2 [Example 282, 3-((1S,2S)-1-(5-((S)-2,2-dimethyltetrahydro-2H-pyran-4-yl)-2-((S)-2-(4-fluoro-3,5-dimethylphenyl)-4-methyl-3-(3-(2-(methyl-d3)-2,7,8,9-tetrahydrooxaheptano[4,3,2-cd]indazol-5-yl)-2-carbonyl-2,3-dihydro-1H-imidazol-1-yl)-4,5,6,7-tetrahydro-2H-pyrazolo[4,3-c]pyridine-5-carbonyl)-1H-indol-1-yl)-2-methylcyclopropyl)-1,2,4-oxadiazol-5(4H)-one]",AUC(0-inf),[1],13900 ng·h/mL
same,AUC(0-t) at 24 h,[1],12200 ng·h/mL
same,Cmax,[1],971 ng/mL
same,Tmax,[1],6 h
same,half-life,[1],7.3 h
same,MRT inf,[1]; read-out: MRT 0-∞,12 h
same,AUC(0-inf),[2],1930 ng·h/mL
same,AUC(0-t),[2],1680 ng·h/mL
same,C0,[2],1080 ng/mL
same,half-life,[2],9.8 h
same,MRT inf,[2]; read-out: MRT 0-∞,10.3 h
